Data taken from ChEMBL document CHEMBL1137656, “Effects of serum on in vitro susceptibility testing of echinocandins” (Antimicrob Agents Chemother, 2007).
Numbered stars: 1 amine (or outer) side, 2 acyl side, 3 side chain; on linkers, the order of the positions; unused ones are H or OH. Bridge positions count the residues as written; N and C are the ends. Square brackets hold non-standard residues; d marks the D form. Peptide text beside a SMILES is read from it. * marks the point of attachment. pTerphenylCO(4''-OnC5H11) = CCCCCOc1ccc(-c2ccc(-c3ccc(C(=O)*)cc3)cc2)cc1; Orn(4R-OH,5R-OH) = O=C([C@H](C[C@@H](O)[C@@H](O)N[*:3])N[*:1])[*:2]; hTyr(3S-OH,4S-OH) = N[C@H](C(=O)O)[C@H](O)[C@@H](O)c1ccc(O)cc1; Pro(3S-OH,4S-Me) = C[C@H]1CN[C@H](C(=O)O)[C@H]1O; Hyp = O=C(O)[C@@H]1C[C@@H](O)CN1

What was measured:
Assay type in all cases: functional
[1] = system: Nakaseomyces glabratus; test: Ratio of MIC50 for Candida glabrata isolate 0049-038 in presence of 50% human serum to MIC50 for Candida glabrata isolate 0049-038 in presence of RPMI 1640 medium
[2] = system: Candida tropicalis; test: Antifungal activity against Candida tropicalis isolate 0022-021 after 24 hrs by CLSI M27-A2 broth microdilution method in presence of 50% human serum; settings: isolate 0022-021, 24 h
[3] = system: Pichia kudriavzevii; test: Antifungal activity against Candida krusei ATCC 6258 after 24 hrs by CLSI M27-A2 broth microdilution method in presence of RPMI 1640 medium; settings: ATCC 6258, 24 h
[4] = system: Nakaseomyces glabratus; test: Ratio of MIC50 for Candida glabrata isolate 0022-012 in presence of 50% human serum to MIC50 for Candida glabrata isolate 0022-012 in presence of RPMI 1640 medium
[5] = system: Aspergillus fumigatus; test: Ratio of MIC50 for Aspergillus fumigatus isolate 0002-0016 in presence of 50% human serum to MIC50 for Aspergillus fumigatus isolate 0002-0016 in presence of RPMI 1640 medium
[6] = system: Candida parapsilosis; test: Antifungal activity against Candida parapsilosis isolate 0011-013 after 24 hrs by CLSI M27-A2 broth microdilution method in presence of 50% human serum; settings: Lodderomyces parapsilosis, isolate 0011-013, 24 h
[7] = system: Candida tropicalis; test: Antifungal activity against Candida tropicalis isolate 0050-028 after 24 hrs by CLSI M27-A2 broth microdilution method in presence of 50% human serum; settings: isolate 0050-028, 24 h
[8] = system: Candida parapsilosis; test: Antifungal activity against Candida parapsilosis isolate 0014-074 after 24 hrs by CLSI M27-A2 broth microdilution method in presence of RPMI 1640 medium; settings: Lodderomyces parapsilosis, isolate 0014-074, 24 h
[9] = system: Aspergillus flavus; test: Ratio of MIC50 for Aspergillus flavus isolate 0001-061 in presence of 50% human serum to MIC50 for Aspergillus flavus isolate 0001-061 in presence of RPMI 1640 medium
[10] = system: Candida parapsilosis; test: Ratio of MIC50 for Candida parapsilosis ATCC 22019 in presence of 50% human serum to MIC50 for Candida parapsilosis ATCC 22019 in presence of RPMI 1640 medium
[11] = system: Candida parapsilosis; test: Ratio of MIC50 for Candida parapsilosis isolate 0036-030 in presence of 50% human serum to MIC50 for Candida parapsilosis isolate 0036-030 in presence of RPMI 1640 medium
[12] = system: Candida parapsilosis; test: Antifungal activity against Candida parapsilosis isolate 0026-003 after 24 hrs by CLSI M27-A2 broth microdilution method in presence of 50% human serum; settings: Lodderomyces parapsilosis, isolate 0026-003, 24 h
[13] = system: Clavispora lusitaniae; test: Antifungal activity against Candida lusitaniae isolate 0015-049 after 24 hrs by CLSI M27-A2 broth microdilution method in presence of 50% human serum
[14] = system: Clavispora lusitaniae; test: Ratio of MIC50 for Candida lusitaniae isolate 0013-002 in presence of 50% human serum to MIC50 for Candida lusitaniae isolate 0013-002 in presence of RPMI 1640 medium
[15] = system: Candida parapsilosis; test: Antifungal activity against Candida parapsilosis isolate 0036-030 after 24 hrs by CLSI M27-A2 broth microdilution method in presence of RPMI 1640 medium; settings: Lodderomyces parapsilosis, isolate 0036-030, 24 h
[16] = system: Clavispora lusitaniae; test: Antifungal activity against Candida lusitaniae isolate 0013-002 after 24 hrs by CLSI M27-A2 broth microdilution method in presence of RPMI 1640 medium; settings: isolate 0013-002, 24 h
[17] = system: Candida albicans; test: Antifungal activity against Candida albicans isolate 0021-076 after 24 hrs by CLSI M27-A2 broth microdilution method in presence of 50% human serum; settings: isolate 0021-076, 24 h
[18] = system: Pichia kudriavzevii; test: Antifungal activity against Candida krusei isolate 0001-058 after 24 hrs by CLSI M27-A2 broth microdilution method in presence of RPMI 1640 medium; settings: isolate 0001-058, 24 h
[19] = system: Pichia kudriavzevii; test: Antifungal activity against Candida krusei ATCC 6258 after 24 hrs by CLSI M27-A2 broth microdilution method in presence of 50% human serum; settings: ATCC 6258, 24 h
[20] = system: Aspergillus fumigatus; test: Antifungal activity against Aspergillus fumigatus isolate 0002-020 after 24 hrs by CLSI M38-A broth microdilution method in presence of RPMI 1640 medium; settings: isolate 0002-020, 24 h
[21] = system: Aspergillus fumigatus; test: Ratio of MIC50 for Aspergillus fumigatus isolate […] in presence of 50% human serum to MIC50 for Aspergillus fumigatus isolate 0020-018 in presence of RPMI 1640 medium
[22] = system: Aspergillus fumigatus; test: Ratio of MIC50 for Aspergillus fumigatus isolate 0002-021 in presence of 50% human serum to MIC50 for Aspergillus fumigatus isolate 0002-021 in presence of RPMI 1640 medium
[23] = system: Candida albicans; test: Antifungal activity against Candida albicans isolate 0012-025 after 24 hrs by CLSI M27-A2 broth microdilution method in presence of RPMI 1640 medium; settings: isolate 0012-025, 24 h
[24] = system: Candida parapsilosis; test: Antifungal activity against Candida parapsilosis isolate 0036-030 after 24 hrs by CLSI M27-A2 broth microdilution method in presence of 50% human serum; settings: Lodderomyces parapsilosis, isolate 0036-030, 24 h
[25] = system: Clavispora lusitaniae; test: Antifungal activity against Candida lusitaniae isolate 0013-002 after 24 hrs by CLSI M27-A2 broth microdilution method in presence of 50% human serum; settings: isolate 0013-002, 24 h
[26] = system: Aspergillus fumigatus; test: Ratio of MIC50 for Aspergillus fumigatus isolate 0002-020 in presence of 50% human serum to MIC50 for Aspergillus fumigatus isolate 0002-020 in presence of RPMI 1640 medium
[27] = system: Pichia kudriavzevii; test: Antifungal activity against Candida krusei isolate 0013-054 after 24 hrs by CLSI M27-A2 broth microdilution method in presence of 50% human serum; settings: isolate 0013-054, 24 h
[28] = system: Aspergillus flavus; test: Antifungal activity against Aspergillus flavus isolate 0001-033 after 24 hrs by CLSI M38-A broth microdilution method in presence of 50% human serum; settings: isolate 0001-033, 24 h
[29] = system: Nakaseomyces glabratus; test: Antifungal activity against Candida glabrata isolate 0022-012 after 24 hrs by CLSI M27-A2 broth microdilution method in presence of 50% human serum; settings: isolate 0022-012, 24 h
[30] = system: Pichia kudriavzevii; test: Ratio of MIC50 for Candida krusei isolate 0001-058 in presence of 50% human serum to MIC50 for Candida krusei isolate 0001-058 in presence of RPMI 1640 medium
[31] = system: Pichia kudriavzevii; test: Antifungal activity against Candida krusei isolate 0001-058 after 24 hrs by CLSI M27-A2 broth microdilution method in presence of 50% human serum; settings: isolate 0001-058, 24 h
[32] = system: Aspergillus fumigatus; test: Antifungal activity against Aspergillus fumigatus isolate 0002-021 after 24 hrs by CLSI M38-A broth microdilution method in presence of RPMI 1640 medium; settings: isolate 0002-021, 24 h

Compound	Ratio [1]	MIC50 [2] [µg/mL]	MIC50 [3] [µg/mL]	Ratio [4]	Ratio [5]	MIC50 [6] [µg/mL]	MIC50 [7] [µg/mL]	MIC50 [8] [µg/mL]	Ratio [9]	Ratio [10]	Ratio [11]	MIC50 [12] [µg/mL]	MIC50 [13] [µg/mL]	Ratio [14]	MIC50 [15] [µg/mL]	MIC50 [16] [µg/mL]	MIC50 [17] [µg/mL]	MIC50 [18] [µg/mL]	MIC50 [19] [µg/mL]	MIC50 [20] [µg/mL]	further results
CC[C@H](C)C[C@H](C)CCCCCCCCC(=O)N[C@H]1C[C@@H](O)[C@@H](NCCN)NC(=O)[C@@H]2[C@@H](O)CCN2C(=O)[C@H]([C@H](O)CCN)NC(=O)[C@H]([C@H](O)[C@@H](O)c2ccc(O)cc2)NC(=O)[C@@H]2C[C@@H](O)CN2C(=O)[C@H]([C@@H](C)O)NC1=O [CASPOFUNGIN]	1	0.5	0.5	1	16	1	2	0.25	1	16	8	8	1	1	1	0.25	4	0.5	4	0.5	Ratio [21]: 8; Ratio [22]: 128; MIC50 [23]: 0.25 µg/mL; MIC50 [24]: 8 µg/mL; MIC50 [25]: 0.25 µg/mL; Ratio [26]: 256; MIC50 [27]: 2 µg/mL; MIC50 [28]: 128 µg/mL; MIC50 [29]: 0.5 µg/mL; Ratio [30]: 1; MIC50 [31]: 0.5 µg/mL; MIC50 [32]: 1 µg/mL
CCCCCOc1ccc(-c2ccc(-c3ccc(C(=O)N[C@H]4C[C@@H](O)[C@@H](O)NC(=O)[C@@H]5[C@@H](O)[C@@H](C)CN5C(=O)[C@H]([C@@H](C)O)NC(=O)[C@H]([C@H](O)[C@@H](O)c5ccc(O)cc5)NC(=O)[C@@H]5C[C@@H](O)CN5C(=O)[C@H]([C@@H](C)O)NC4=O)cc3)cc2)cc1 [ANIDULAFUNGIN] ({pTerphenylCO(4''-OnC5H11)}-[Orn(4R-OH,5R-OH)]T[Hyp][hTyr(3S-OH,4S-OH)]T[Pro(3S-OH,4S-Me)]; lactam 1-C)	32	2	0.125	32	64	2	128	0.004	32	128	128	128	1	512	1	0.002	128	0.0313	2	0.008	Ratio [21]: 256; Ratio [22]: 64000; MIC50 [23]: 0.0156 µg/mL; MIC50 [24]: 128 µg/mL; MIC50 [25]: 1 µg/mL; Ratio [26]: 64; MIC50 [27]: 4 µg/mL; MIC50 [28]: 128 µg/mL; MIC50 [29]: 1 µg/mL; Ratio [30]: 32; MIC50 [31]: 1 µg/mL; MIC50 [32]: 0.002 µg/mL
